Laboratory results as given in ChEMBL document CHEMBL1177743, “Symbiopolyol, a VCAM-1 inhibitor from a symbiotic dinoflagellate of the jellyfish Mastigias papua” (J Nat Prod, 2010).
pIC50: −log10 of the molar value.

Legend:
[1] = system: HUVEC; assay: Toxicity in HUVEC up to 12 uM; type: cell-based; conditions: human
[2] = target: T1, Vascular cell adhesion protein 1 (Homo sapiens) (UniProt P19320); assay: Inhibition of VCAM1 in TNF-alpha/IL4-stimulated HUVEC assessed as inhibition of cell adhesion between HUVEC and Ramos cells at 8 uM after 20 hrs incubation relative to untreated control; type: cell-based
T1 sequence (whole entry): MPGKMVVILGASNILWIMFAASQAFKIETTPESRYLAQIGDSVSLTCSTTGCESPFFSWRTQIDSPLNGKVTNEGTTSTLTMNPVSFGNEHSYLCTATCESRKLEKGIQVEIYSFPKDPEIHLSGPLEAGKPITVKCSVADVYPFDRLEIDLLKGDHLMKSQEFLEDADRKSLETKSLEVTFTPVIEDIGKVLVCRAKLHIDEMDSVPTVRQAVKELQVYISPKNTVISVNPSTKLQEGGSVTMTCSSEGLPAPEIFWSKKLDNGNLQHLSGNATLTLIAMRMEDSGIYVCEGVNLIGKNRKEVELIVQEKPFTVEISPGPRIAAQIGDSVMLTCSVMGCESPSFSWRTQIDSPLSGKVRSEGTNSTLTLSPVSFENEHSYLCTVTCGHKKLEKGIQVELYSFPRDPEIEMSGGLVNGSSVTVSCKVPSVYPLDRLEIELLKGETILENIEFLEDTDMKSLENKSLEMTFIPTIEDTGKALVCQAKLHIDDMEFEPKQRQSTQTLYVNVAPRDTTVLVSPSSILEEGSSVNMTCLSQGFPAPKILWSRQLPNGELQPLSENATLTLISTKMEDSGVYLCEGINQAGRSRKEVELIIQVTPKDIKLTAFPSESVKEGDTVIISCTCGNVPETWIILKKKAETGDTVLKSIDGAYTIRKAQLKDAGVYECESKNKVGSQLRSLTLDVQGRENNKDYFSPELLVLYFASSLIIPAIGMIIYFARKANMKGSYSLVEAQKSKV

[3] = system: HUVEC; assay: Inhibition of VCAM1 expression in TNF-alpha-stimulated HUVEC pretreated 30 mins before TNFalpha challenge for 18 hrs by ELISA; type: functional, cell-based; conditions: Homo sapiens

- inhibition [2]: 77%
Structure (SMILES): C=CCC/C=C/C=C/C=C/CC/C=C/[C@@H](O)[C@H](O)[C@@H]1O[C@@H]([C@H](O)[C@@H](O)C(=C)CC[C@@H](O)[C@H]2C[C@@H](O)[C@@H](O)[C@H]([C@@H](O)[C@H](O)/C=C(\C)CC[C@H](O)C[C@H](O)[C@H](O)C(C)C(O)C(O)C/C=C/CC(O)/C=C/CCCCCOS(=O)(=O)[O-])O2)C[C@@H](O)[C@H]1O.[Na+] (stereo partly drawn) [SYMBIOPOLYOL]
- Activity [1]: Non-toxic
- pIC50 [3]: 5.18
